Laboratory results reported in ChEMBL document CHEMBL1201862, “PubChem BioAssay data set” (2004).
Active and inactive are the calls of the source.

Assays:
HeLa = experiment: ATP-based viability loss in HeLa cells – cell-based, CellTiter-Glo luminescence, cherry-pick samples, cytotoxicity control for MITF activator project, dose response (AID 540259); type: functional; conditions: Homo sapiens
Vero = experiment: viability of Vero cells under compound – cytotoxicity control for flavivirus capping enzyme inhibitors (AID 588742); type: functional; conditions: Chlorocebus sabaeus
[1] = target: Voltage-gated inwardly rectifying potassium channel KCNH2 (Homo sapiens, UniProt Q12809); conditions: Potency;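 also: confirmatory quantitative high-throughput screen measuring inhibition of hERG channel activity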
Jurkat = experiment: blockers of NF-kB activation in T cells – Jurkat, luciferase reporter, luminescence, B- and T-cell, dose response (AID 489004); type: functional, cell-based; conditions: Homo sapiens;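 also: NF-kB luciferase reporter Jurkat cells stimulated with PMA plus ionomycin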
Orexin receptor type 2 [2] = target: T1, Orexin receptor type 2 (Homo sapiens, UniProt O43614); experiment: Counterscreen assay for antagonists of the orexin 1 receptor (OX1R; HCRTR1): Fluorescence-based cell-based dose response assay for antagonists of the orexin 2 receptor (OX2R; HCRTR2), run by assay provider.; type: functional
T1 sequence (O43614 whole entry): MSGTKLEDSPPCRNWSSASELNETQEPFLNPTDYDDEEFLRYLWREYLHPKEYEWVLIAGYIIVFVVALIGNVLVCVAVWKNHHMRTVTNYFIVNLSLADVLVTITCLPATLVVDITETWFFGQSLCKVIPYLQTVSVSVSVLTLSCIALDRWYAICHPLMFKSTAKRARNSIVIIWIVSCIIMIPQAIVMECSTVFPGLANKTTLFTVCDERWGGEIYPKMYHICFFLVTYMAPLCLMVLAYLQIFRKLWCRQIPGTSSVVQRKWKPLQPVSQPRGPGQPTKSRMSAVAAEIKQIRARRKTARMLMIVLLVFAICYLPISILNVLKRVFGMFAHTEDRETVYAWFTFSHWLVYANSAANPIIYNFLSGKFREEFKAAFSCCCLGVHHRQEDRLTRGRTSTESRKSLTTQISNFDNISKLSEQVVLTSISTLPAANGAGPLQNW

[3] = target: T2, Microphthalmia-associated transcription factor (Homo sapiens, UniProt O75030); experiment: reducers of TRPM1 reporter luminescence, concentration series – cell-based, SK-MEL-5, cherry-picked, set 3, MITF inhibitor project, dose response (AID 493073); type: functional;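 also: SK-MEL-5 melanoma cells with luciferase driven by the MITF target TRPM1 promoter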
T2 sequence (O75030 whole entry): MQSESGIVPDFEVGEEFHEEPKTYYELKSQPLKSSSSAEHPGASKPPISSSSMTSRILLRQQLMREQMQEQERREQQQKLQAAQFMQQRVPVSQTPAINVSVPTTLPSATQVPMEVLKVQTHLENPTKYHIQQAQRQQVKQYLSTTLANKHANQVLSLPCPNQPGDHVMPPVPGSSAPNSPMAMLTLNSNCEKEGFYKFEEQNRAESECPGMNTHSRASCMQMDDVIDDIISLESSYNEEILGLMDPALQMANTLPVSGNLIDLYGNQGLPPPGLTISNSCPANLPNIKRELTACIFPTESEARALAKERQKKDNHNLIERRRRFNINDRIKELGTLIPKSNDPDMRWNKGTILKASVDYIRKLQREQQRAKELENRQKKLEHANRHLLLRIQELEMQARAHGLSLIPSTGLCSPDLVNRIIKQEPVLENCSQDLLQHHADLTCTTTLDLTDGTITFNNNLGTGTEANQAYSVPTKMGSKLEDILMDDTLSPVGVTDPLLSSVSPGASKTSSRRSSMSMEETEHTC

[4] = Counterscreen for antagonists of the orexin 1 receptor (OX1R; HCRTR1): Fluorescence-based cell-based high throughput dose response assay to identify antagonists of the parental CHO cell line. [Related pubchem assays (depositor defined):AID434989, AID435008, AID463079, AID485270, AID492963, AID492964, AID492965, AID493232, AID504699, AID504701]; type: functional
[5] = target: Sphingosine 1-phosphate receptor 2 (Homo sapiens, UniProt O95136); experiment: Dose Response Cell Based Assay for Antagonists of the S1P2 Receptor. [Related pubchem assays: 856, 736 ]; type: functional
Orexin receptor type 2 [6] = target: T1, Orexin receptor type 2; experiment: Counterscreen assay for antagonists of the orexin 1 receptor (OX1R; HCRTR1): Homogeneous Time Resolved Fluorescence (HTRF)-based cell-based dose response assay for antagonists of the orexin 2 receptor (OX2R; HCRTR2), run by assay provider.; type: functional
CHO-K1 = experiment: Counterscreen for antagonists of the orexin 1 receptor (OX1R; HCRTR1): Homogeneous time resolved fluorescence (HTRF)-based cell-based dose response assay to identify antagonists of the parental CHO-K1 cell line. [Related pubchem assays (depositor defined):AID434989, AID435008, AID463079, AID485270, AID492963, AID492964, AID492965, AID493232, AID504699, AID504701]; type: functional; conditions: Cricetulus griseus;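 also: potency for inhibition of ATP-stimulated IP1 production as antagonists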
[7] = target: T3, Orexin/Hypocretin receptor type 1 (Homo sapiens, UniProt O43613); experiment: Homogeneous Time Resolved Fluorescence (HTRF)-based cell-based high throughput dose response assay for antagonists of the orexin 1 receptor (OX1R; HCRTR1). [Related pubchem assays (depositor defined):AID434989, AID435008, AID463079, AID485270, AID492963, AID492964, AID492965, AID493232, AID504717, AID504718]; type: functional
T3 sequence (O43613 whole entry): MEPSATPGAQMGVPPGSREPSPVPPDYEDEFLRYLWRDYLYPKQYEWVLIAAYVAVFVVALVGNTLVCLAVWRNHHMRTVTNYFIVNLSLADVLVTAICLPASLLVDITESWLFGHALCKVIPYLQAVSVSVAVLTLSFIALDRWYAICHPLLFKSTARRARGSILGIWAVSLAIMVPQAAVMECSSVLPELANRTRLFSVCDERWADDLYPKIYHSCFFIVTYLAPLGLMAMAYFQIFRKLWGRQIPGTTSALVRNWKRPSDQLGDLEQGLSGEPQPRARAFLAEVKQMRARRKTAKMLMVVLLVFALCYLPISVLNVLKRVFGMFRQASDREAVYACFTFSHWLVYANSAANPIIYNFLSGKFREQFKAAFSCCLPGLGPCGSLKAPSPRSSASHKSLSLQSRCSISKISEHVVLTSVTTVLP

Fatty acid synthase = Fatty acid synthase (Homo sapiens, UniProt P49327); experiment: inhibition of human FAS-TE enzyme activity – biochemical, kinetic fluorescence intensity, dose response (AID 624326); type: functional;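 also: rate of fluorescence rise from hydrolysis of a fluorogenic O-methyl fluorescein ester substrate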
[8] = non-specific 3'UTR reporter inhibition in Clone20-Shn3RL – cell-based, Renilla luciferase, cherry-picked, counter-screen for Shn3 inhibitor project, dose response (AID 624133); type: functional
[9] = HEK-293T viability loss, compound-treated – cell-based, uHTS hits, cytotoxicity control for B/T-cell NF-kB inhibitor project, dose response (AID 489019); type: functional;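 also: IC50 reflects cytotoxicity as loss of cell viability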
[10] = target: T3, Orexin/Hypocretin receptor type 1; experiment: Fluorescence-based cell-based high throughput dose response assay for antagonists of the orexin 1 receptor (OX1R; HCRTR1). [Related pubchem assays (depositor defined):AID434989, AID435008, AID463079, AID485270, AID492963, AID492964, AID492965, AID493232, AID504717, AID504718]; type: functional
[11] = reduction of Shn3 3'UTR-driven luciferase in osteoblasts – cell-based, Clone20 osteoblasts, firefly luciferase, cherry-picked, dose response (AID 624132); type: functional;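 also: firefly luciferase luminescence from reporter carrying the Shn3 3'UTR in osteoblasts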
INS1 = experiment: INS-1E survival protection against cytokine death – cell-based, luminescence, retest, dose response (AID 449756); type: functional; conditions: Rattus norvegicus;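 also: cell death triggered by IL-1 beta plus TNF-alpha plus IFN-gamma mixture; protective hits raise ATP signal compared with cytokine alone wells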
[12] = loss of viability in HepG2 cells – cell-based, CellTiter-Glo, cherry-picked, cytotoxicity control for Shn3 inhibitor project, dose response (AID 624134); type: functional
[13] = tested on: Streptococcus sp. 'group A'; experiment: Streptococcus pyogenes SK(-)GAS viability under kanamycin – luminescence, BacTiterGlo, confirmation, counter-screen for streptokinase expression inhibitor project, dose response (AID 1900); type: functional, organism-based
[14] = target: Glucose-6-phosphate 1-dehydrogenase (Homo sapiens, UniProt P11413); experiment: inhibition of Homo sapiens G6PD, dose series – biochemical, fluorescence, selectivity assay for P. falciparum G6PD inhibitor project, dose response (AID 504792); type: functional
Streptococcus = experiment: GAS UMAA2166 growth inhibition – luminescence, BacTiterGlo, counter-screen for streptokinase expression inhibitor project, dose response (AID 1915); type: functional, organism-based;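 also: potency for reduction of bacterial viability or growth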
HEK293 = experiment: EBV LMP1 TES2 canonical NF-kB signalling blockers – cell-based, HEK293, luciferase, cherry-pick, dose response (AID 588343); type: functional; conditions: Homo sapiens
[15] = target: Neurotensin receptor type 1 (Homo sapiens, UniProt P30989); type: functional;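 also: Image-based confirmatory dose-response assay measuring agonist activity at NTR1; NTR1-expressing U2OS osteosarcoma cells imaged for beta-arrestin GFP spot formation; agonist potency where compounds increase beta-arrestin recruitment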
Streptokinase A = target: T4, Streptokinase A (Streptococcus pyogenes serotype M1, UniProt P10520); experiment: viability-normalized secreted streptokinase activity reduction – plasminogen activation absorbance, OD405, dose response (AID 1914); type: functional, Streptococcus pyogenes M1 GAS;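 also: secreted streptokinase activity via plasminogen activation per viability signal from cell pellet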
T4 sequence (P10520 whole entry): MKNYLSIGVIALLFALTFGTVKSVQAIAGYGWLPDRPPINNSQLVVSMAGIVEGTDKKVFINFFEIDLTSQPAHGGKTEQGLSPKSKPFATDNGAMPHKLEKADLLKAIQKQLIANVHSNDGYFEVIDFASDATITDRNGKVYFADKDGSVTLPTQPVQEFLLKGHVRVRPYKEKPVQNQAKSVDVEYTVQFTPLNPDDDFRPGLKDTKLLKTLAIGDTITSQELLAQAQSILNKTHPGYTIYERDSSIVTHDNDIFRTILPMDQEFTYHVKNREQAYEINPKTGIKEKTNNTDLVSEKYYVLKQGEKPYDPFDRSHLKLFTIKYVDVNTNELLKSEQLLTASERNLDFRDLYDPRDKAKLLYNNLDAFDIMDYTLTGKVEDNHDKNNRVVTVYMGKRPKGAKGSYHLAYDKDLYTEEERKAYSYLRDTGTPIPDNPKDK

[16] = microbe, parasite or virus in culture; type: functional; conditions: Mycobacterium tuberculosis
A-375 = experiment: MITF: Counter assay: A375 proliferation Measured in Cell-Based System Using Plate Reader - 2084-03_Inhibitor_Dose_DryPowder_Activity. [Related pubchem assays (depositor defined):AID488944]; type: functional; conditions: Homo sapiens
[17] = target: T5, Endoribonuclease toxin MazF (Escherichia coli K-12, UniProt P0AE70); experiment: substrate-only fluorescence increase artefacts – biochemical, single-stranded RNase substrate, counter-screen for MazEF activator project, dose response (AID 588502); type: functional
T5 sequence (P0AE70 whole entry): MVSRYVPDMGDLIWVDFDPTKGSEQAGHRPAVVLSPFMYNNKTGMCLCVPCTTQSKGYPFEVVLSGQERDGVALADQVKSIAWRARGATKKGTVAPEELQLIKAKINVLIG

[18] = target: T5, Endoribonuclease toxin MazF; experiment: activation of MazEF endoribonuclease cleavage – biochemical, fluorescence, single-stranded RNA substrate, uHTS hits, dose response (AID 588481); type: functional

Sequence of Glucose-6-phosphate 1-dehydrogenase (P11413 whole entry): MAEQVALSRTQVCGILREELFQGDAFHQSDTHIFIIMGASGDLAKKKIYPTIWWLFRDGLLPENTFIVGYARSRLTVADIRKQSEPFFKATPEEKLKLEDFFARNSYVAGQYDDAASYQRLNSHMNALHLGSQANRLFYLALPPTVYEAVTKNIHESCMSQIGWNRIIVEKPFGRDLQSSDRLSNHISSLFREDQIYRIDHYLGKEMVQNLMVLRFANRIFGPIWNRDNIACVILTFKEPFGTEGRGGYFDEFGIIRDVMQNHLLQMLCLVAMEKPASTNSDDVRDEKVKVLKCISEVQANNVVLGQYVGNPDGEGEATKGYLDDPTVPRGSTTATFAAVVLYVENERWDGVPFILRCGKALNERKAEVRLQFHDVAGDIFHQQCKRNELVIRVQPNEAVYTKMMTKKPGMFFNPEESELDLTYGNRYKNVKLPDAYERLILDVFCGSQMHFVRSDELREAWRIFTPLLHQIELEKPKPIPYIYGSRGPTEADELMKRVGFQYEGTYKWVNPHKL
Sequence of Voltage-gated inwardly rectifying potassium channel KCNH2 (Q12809 whole entry): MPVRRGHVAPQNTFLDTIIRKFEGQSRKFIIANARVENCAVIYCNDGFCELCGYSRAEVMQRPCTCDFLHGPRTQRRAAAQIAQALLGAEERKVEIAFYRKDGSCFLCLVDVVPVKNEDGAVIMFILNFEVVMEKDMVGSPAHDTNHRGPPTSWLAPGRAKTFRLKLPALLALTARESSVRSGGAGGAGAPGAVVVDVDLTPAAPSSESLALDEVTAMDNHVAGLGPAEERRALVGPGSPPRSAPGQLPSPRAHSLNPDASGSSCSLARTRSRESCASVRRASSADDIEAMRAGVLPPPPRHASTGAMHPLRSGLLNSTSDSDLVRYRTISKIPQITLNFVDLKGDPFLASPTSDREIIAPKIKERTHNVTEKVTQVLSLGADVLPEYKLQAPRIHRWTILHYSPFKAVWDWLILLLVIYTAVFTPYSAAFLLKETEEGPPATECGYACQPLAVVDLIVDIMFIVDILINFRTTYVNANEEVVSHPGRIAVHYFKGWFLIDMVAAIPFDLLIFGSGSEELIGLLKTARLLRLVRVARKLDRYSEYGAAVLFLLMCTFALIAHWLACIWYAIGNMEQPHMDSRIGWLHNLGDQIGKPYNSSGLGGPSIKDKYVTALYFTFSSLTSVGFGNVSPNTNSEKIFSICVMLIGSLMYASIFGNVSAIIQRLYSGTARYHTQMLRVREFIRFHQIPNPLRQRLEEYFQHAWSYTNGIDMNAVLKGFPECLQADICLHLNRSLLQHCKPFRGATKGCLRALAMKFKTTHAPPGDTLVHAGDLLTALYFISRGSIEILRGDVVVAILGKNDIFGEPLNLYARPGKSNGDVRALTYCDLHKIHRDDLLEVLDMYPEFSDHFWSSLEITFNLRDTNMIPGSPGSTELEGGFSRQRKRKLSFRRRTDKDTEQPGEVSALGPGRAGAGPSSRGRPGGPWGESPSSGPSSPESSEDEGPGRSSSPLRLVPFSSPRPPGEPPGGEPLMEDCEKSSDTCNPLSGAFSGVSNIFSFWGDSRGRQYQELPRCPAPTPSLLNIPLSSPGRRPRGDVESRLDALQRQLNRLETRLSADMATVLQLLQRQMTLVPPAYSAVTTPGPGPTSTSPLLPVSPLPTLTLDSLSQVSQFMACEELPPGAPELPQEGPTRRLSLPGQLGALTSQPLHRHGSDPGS
Sequence of Neurotensin receptor type 1 (P30989 whole entry): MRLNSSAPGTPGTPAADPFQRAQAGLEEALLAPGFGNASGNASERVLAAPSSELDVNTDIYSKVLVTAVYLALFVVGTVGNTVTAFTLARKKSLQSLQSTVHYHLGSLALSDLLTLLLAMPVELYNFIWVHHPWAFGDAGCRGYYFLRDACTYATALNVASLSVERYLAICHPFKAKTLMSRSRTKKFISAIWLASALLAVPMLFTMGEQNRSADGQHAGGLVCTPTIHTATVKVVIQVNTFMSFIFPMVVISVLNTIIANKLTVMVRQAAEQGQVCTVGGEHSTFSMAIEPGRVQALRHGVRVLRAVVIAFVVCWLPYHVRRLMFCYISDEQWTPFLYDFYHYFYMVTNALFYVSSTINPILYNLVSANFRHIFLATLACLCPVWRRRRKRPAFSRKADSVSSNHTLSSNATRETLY
Sequence of Sphingosine 1-phosphate receptor 2 (O95136 whole entry): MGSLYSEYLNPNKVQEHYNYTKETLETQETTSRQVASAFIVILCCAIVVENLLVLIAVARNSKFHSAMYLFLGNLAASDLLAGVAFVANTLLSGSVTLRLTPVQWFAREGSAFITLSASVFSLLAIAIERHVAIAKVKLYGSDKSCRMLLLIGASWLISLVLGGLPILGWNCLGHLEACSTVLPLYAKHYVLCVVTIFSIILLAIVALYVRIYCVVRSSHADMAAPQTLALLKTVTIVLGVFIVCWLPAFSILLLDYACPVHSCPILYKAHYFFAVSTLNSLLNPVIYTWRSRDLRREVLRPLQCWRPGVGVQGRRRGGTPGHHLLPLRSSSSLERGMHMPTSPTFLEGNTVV
Sequence of Fatty acid synthase (P49327 whole entry): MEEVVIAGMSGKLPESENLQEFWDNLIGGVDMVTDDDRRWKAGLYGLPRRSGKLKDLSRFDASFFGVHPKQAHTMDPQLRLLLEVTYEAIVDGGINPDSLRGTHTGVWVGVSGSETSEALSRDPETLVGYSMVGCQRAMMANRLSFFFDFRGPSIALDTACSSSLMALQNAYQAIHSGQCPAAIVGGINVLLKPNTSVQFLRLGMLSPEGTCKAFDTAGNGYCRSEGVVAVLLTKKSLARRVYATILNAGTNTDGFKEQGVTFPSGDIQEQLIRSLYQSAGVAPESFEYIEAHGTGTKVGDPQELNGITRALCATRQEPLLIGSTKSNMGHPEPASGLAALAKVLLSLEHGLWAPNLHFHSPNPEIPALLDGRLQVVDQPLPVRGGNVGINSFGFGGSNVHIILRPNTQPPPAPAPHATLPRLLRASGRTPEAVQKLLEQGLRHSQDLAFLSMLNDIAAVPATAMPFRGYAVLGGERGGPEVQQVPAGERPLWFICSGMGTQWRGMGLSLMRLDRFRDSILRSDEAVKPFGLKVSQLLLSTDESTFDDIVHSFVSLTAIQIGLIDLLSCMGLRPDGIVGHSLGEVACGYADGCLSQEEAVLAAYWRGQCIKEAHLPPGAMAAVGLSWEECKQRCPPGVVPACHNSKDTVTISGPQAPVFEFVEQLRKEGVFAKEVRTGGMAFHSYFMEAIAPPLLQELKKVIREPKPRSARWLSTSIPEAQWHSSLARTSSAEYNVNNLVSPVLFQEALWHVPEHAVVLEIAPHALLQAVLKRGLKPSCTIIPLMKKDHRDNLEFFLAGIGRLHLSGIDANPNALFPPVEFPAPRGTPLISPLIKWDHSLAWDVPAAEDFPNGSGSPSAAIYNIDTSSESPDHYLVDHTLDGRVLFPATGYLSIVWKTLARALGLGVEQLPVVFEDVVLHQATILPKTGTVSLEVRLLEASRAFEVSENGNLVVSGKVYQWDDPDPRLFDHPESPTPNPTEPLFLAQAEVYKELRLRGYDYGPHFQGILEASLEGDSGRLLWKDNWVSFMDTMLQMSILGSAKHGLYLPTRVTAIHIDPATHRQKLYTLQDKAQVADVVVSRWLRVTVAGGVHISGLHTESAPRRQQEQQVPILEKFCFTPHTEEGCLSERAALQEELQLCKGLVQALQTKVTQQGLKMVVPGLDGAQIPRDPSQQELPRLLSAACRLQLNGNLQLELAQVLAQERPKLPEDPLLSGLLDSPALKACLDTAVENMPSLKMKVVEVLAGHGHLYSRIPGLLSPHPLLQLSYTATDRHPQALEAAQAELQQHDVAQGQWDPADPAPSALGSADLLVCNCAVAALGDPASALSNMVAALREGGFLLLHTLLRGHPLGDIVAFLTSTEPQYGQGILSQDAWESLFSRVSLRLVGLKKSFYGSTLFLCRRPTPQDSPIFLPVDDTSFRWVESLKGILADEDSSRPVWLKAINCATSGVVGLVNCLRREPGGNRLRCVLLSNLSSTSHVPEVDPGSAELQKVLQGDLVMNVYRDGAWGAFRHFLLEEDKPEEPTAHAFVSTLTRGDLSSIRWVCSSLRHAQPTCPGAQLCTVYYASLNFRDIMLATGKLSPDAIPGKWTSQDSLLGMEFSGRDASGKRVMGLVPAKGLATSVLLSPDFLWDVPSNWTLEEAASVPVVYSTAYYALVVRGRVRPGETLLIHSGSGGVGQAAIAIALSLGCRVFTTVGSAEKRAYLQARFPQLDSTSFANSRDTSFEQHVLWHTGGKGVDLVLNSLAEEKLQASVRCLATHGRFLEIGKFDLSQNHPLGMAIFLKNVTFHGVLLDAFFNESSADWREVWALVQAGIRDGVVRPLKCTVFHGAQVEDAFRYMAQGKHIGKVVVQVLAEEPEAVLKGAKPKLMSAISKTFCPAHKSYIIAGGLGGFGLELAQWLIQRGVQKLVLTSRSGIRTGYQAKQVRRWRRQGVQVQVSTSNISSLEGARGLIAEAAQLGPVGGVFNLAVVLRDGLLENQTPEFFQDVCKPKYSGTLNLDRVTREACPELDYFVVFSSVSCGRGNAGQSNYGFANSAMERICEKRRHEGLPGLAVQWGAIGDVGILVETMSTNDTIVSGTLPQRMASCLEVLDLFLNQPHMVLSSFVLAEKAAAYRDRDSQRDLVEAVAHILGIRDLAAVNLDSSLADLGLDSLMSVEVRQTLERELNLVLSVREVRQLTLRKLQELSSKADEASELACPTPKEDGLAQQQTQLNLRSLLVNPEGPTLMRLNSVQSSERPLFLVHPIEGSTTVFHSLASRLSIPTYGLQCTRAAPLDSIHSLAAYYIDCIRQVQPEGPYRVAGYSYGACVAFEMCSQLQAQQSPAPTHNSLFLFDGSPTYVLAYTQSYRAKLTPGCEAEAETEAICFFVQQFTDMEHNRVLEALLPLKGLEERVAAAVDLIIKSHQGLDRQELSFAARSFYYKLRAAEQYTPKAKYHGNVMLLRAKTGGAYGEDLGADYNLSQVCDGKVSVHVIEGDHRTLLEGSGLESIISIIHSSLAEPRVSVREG

COc1ccc(-c2cc(=O)c3cc(C)ccc3[nH]2)cc1
AC50 (HeLa): 79.9 µM (active)

Cc1nc2cc(NCc3nc4ccccc4n3Cc3ccccc3)ccc2n1C
CC50 (Vero): > 40 µM (active)

CCN(CC)C(=O)Oc1ccc2c(=O)c(-c3ccc(OC)cc3)coc2c1
AC50 (HeLa): 287 µM (active)

CCN(Cc1ccccc1)c1ccccc1
AC50 [1]: 35.5 µM (inconclusive)

COc1ccccc1C(=O)Nc1nc(-c2ccc(S(=O)(=O)N3CCOCC3)cc2)cs1
IC50 (Jurkat): 7.79 µM (active) | IC50 (Orexin receptor type 2 [2]): 8.4 µM (active) | AC50 [3]: 4.34 µM (active) | IC50 [4]: > 16.6 µM (inactive) | IC50 [5]: 3.81 µM (active) | IC50 (Orexin receptor type 2 [6]): 5.93 µM (active) | IC50 (CHO-K1): > 66.2 µM (inactive) | IC50 [7]: 3.59 µM (active) | IC50 (Fatty acid synthase): 10.9 µM (active) | AC50 [8]: 2.34 µM (active) | IC50 [9]: > 80 µM (inactive) | IC50 [10]: 17.5 µM (inactive) | AC50 [11]: 1.21 µM (active) | AC50 (INS1): 3.17 µM (active) | AC50 [12]: 51.8 µM (active)

Cc1ccc(C(=O)/C=C/C(=O)c2ccc(C)cc2)cc1
EC50 [13]: 3.45 µM (active) | IC50 [14]: > 80 µM (inactive) | EC50 (Streptococcus): 9.38 µM (active) | AC50 (HEK293): 8.72 µM (active) | EC50 [15]: 14.9 µM (active) | EC50 (Streptokinase A): 0.653 µM (active) | CC50 [16]: 31.4 µM (active)

CC(C)=NOc1cc(NC(=O)CCl)cc([N+](=O)[O-])c1
AC50 (A-375): 15.3 µM (active)

COc1cc(NCc2ccccc2O)c2ncccc2c1
IC50 [14]: > 80 µM (inactive)

CN(CC(=O)Nc1ccccc1Cl)CC(=O)c1c(N)n(Cc2ccccc2)c(=O)n(C)c1=O
EC50 [17]: > 99 µM (inactive) | EC50 [18]: > 99 µM (inactive)

CCC(Cl)CC(Cl)C(Cl)C(Cl)C(Cl)C(C)Cl (stereo unspecified)
AC50 [1]: 11.2 µM (inconclusive)
